Experimental data taken from patent US11319300B2, “Polyfluoro-substituted aromatic heterocyclic derivative, pharmaceutical composition containing same, and applications thereof” (ZHEJIANG UNIVERSITY, priority 2017, dated 2022).
pIC50: −log10 of the molar value. Marks after values point to notes of the source that are not given here.

Legend:
786-O = assay: Tumour cell proliferation inhibition, MTT assay, 786-O; type: cell-based, human; conditions: 72 hours
CEM-C1 = assay: Tumour cell proliferation inhibition, MTT assay, CEM-C1; type: cell-based, human; conditions: 72 hours
[1] = tested on: human gastric cancer HGC27 nude mice xenografts; assay: In vivo antitumour activity, human gastric cancer HGC27 nude mice xenografts; conditions: HGC27 xenograft, 50 mg/kg intragastric once a day; for Tumour volume D1: D1 (start)
Description: (§1) A Sixty-Fifth Embodiment: In Vivo Antitumour Activity of Compounds
(§2) 1) Establishment of a nude mouse xenograft model: 1×10^7 test tumour cells were injected into the armpit of nude mice, after three generations, HGC27 mouse tumour blocks were dissected and placed in a glass dish containing physiological saline, after the necrotic area was removed by incision, the tumour mass was cut into 1-2 mm^3 and inserted into the left axilla of the nude mouse with a trocar.
(§3) 2) Animal grouping and drug delivery arrangements: after the tumour grows to an average volume of 100-300 mm^3, 20 mice were randomly grouped according to the tumour volume, and the above test animals were given the corresponding test substances by intragastric administration at a dose of 10 mL/kg with once a day.
(§4) 3) Data measurement and statistics: The tumour volume was weighed and measured twice and dosing period was 21 days. On the 22nd day, after the body weight was weighed and the tumour volume was measured, the nude mice were sacrificed and the tumours were weighed to calculate the relative tumour volume (RTV), relative tumour growth rate (T/C) and tumour inhibition percentage (IR) for statistical testing. The calculation formula was as follows: (a) TV (tumour volume)=½×a×b^2, wherein a and b represent the length and width of the tumour respectively, (b) RTV (relative tumour volume)=Vt/V0, Where V0 is the tumour volume measured at the time of group administration (i.e. d0), Vt is the tumour volume at each measurement, (c) T/C (%)=TRTV/CRTV×100%, wherein TRTV is the RTV of treatment group, CRTV is the RTV of the solvent control group, (d) IR (%)=(1−TWt/TWc)×100%, wherein TWt is the tumour weight of the treatment group, and TWc is the tumour weight of the solvent control group.

[2] = Oral pharmacokinetic experiment in SD rats; type: in vivo; conditions: oral administration; for 1/2 / AUC0-inf / AUC0-t / Cmax / Tmax: 20 mg/kg, mean n = 3; for Cmax / Tmax: rat
Description: […] The blood sampling times of the tail vein administered by intragastric administration were 0.25, 0.5, 1, 2, 4, 6, 8, 10, 24 hours; the times of blood collection by intravenous administration were 0.05, 0.1, 0.17, 0.5, 1, 2, 4, 6, 8, 10, 24 hours. 0.3 ml of whole blood was taken, and after centrifugation, 0.1 ml of plasma was taken and analysed by LC-MS.

hERG potassium channel = target: T1, hERG potassium channel (Homo sapiens, UniProt Q12809); assay: hERG potassium channel inhibition, manual whole-cell patch clamp in CHO hERG cells; type: cell-based; conditions: for hERG (Inhibition rate at 3 μM concentration): CHO hERG cells, patch clamp
T1 construct: host or cells: CHO
Description: A Sixty-Third Embodiment: hERG Potassium Channel Inhibition Activity Experiment
The cells used in this assay were CHO cell lines transfected with hERG cDNA and stably expressing the hERG channel (supplied by Sophion Bioscience, Denmark). The cells were cultured in medium containing the following components (all from Invitrogen): Ham's F12 medium, 10% (v/v) inactivated fetal bovine serum, 100 μg/ml hygromycin B, and 100 μg/ml Geneticin. 2.1.2CHO hERG cells were grown in a Petri dish containing the above culture solution, and cultured in an incubator containing 5% of CO2 at 37° C. 24 to 48 hours prior to electrophysiological experiments, CHO hERG cells were transferred to circular glass slides placed in petri dishes and grown under the same culture and culture conditions as above. The density of CHO hERG cells on each circular slide requires that most cells achieve independent, individual requirements.
2. Compound Treatment and Dilution
To obtain the IC50 of the compound, we selecte the following concentrations (30, 10, 3, 1, 0.3, and 0.1 μM) for testing. Prior to testing, the […] were first diluted to 10, 3, 1, 0.3, and 0.1 mM stock solution in gradual dilution with DMSO and then diluted to the final μM test concentration with extracellular fluid. The final concentration of DMSO in each of the other compound solutions was 0.1% except that the DMSO concentration in the 30 μM compound test solution was 0.3%. The positive control Cisapride (cishabili) was tested at a concentration of 0.1 μM. All compound solutions were sonicated and shaken for 5 to 10 minutes to ensure complete dissolution of the compound.
3. Electrophysiological Recording System and Data Analysis
This experiment uses a manual patch clamp system (HEKA EPC-10 signal amplifier and digital conversion system, purchased from HEKA Electronics, Germany) for the recording of whole cell currents. Round slide with CHO hERG cells on the surface was placed in an electrophysiology recording cell under an inverted microscope. The extracellular fluid was continuously perfused in the recording tank (about 1 ml per minute). The experimental procedure uses conventional whole-cell patch clamp current recording techniques. Unless otherwise stated, the experiments were carried out at regular room temperature (˜25° C.). The cells were clamped at a voltage of −80 mV. The cell clamp voltage was depolarized to +20 mV to activate the hERG potassium channel, and after 5 seconds it was clamped to −50 mV to eliminate inactivation and generate tail current. The tail current peak was used as the value of the hERG current magnitude. After the hERG potassium current recorded in the above step was stabilized under the continuous extracellular fluid perfusion in the recording tank, the drug to be tested can be superimposed and filled until the inhibitory effect of the drug on the hERG current reaches a steady state. Generally, the recent three consecutive current recording lines were recombined as a criterion for judging whether or not the state is stable. After reaching a steady state, extracellular fluid perfusion rinse until hERG current returns to the size before adding drug. One cell can test one or more drugs, or multiple concentrations of the same drug, but need to be flushed with extracellular fluid between different drugs. Cisapride (cisapride, purchased from Sigma) was used in the experiment as a positive control to ensure that the cells used were of normal quality. The test data was analysed by HEKA Patchmaster, Microsoft Excel and data analysis software provided by Graphpad Prism.

HGC27 = assay: Tumour cell proliferation inhibition, MTT assay, HGC27; type: cell-based, human; conditions: 72 hours
HCT-116 = assay: Tumour cell proliferation inhibition, MTT assay, HCT-116; type: cell-based, human; conditions: 72 hours
Description: Compound AZD5363 (NCT02208375, NCT02208375, NCT01625286), which have entered the clinical phase II study, was used as a positive control, and the compound was assayed against common tumour cell lines (human ovarian cancer cell line OVCAR-8 and human colon cancer cell line HCT-116) by MTT assay, at the same time, the akt1 enzyme inhibitory activity (IC50) was evaluated using a commercial Akt1 kit.
1) The pharmacological test method for the tumour cell proliferation inhibiting activity of the compound of the present invention was as follows:
The first was the determination of in vitro tumour growth inhibitory activity and the preliminary structure-activity relationship study, and different solid tumour cell lines were used to determine the in vitro antitumour activity of the synthesized compounds.
Experimental materials: cell lines: human ovarian cancer cells (OVCAR8), colon adenocarcinoma cells (HCT-116),
Medium: OVCAR8: RPMI 1640+fetal calf serum
Drug preparation method: dissolving the drug in DMSO to make a 50 mM of stock solution, and diluting it to a certain ratio to obtain 5 different concentrations.
Tumour Cells being Cultured In Vitro:
The selected tumour cells were incubated in a, 5% of CO2 cell incubator at 37° C., and passaged until the cell density was 70 to 90% (the adherent cells were passaged with Duck's EDTA) and used for subsequent experiments.
The compound was dissolved in dimethyl sulfoxide (DMSO), diluted, and tumour cells were seeded into 4000 cells/200 μL/well in 96-well plates, and 1 μL of compound was added to each well to a final concentration of 50 μM, 10 μM, 2 μM, and 0.4 μM. 0.08 μM were incubated in a, 5% of CO2 cell incubator at 37° C. for 72 hours with DMSO (1%) as a blank control.
The calculation formula of the cell inhibition rate is: cell inhibition rate %=(control group OD value−drug group OD value)/control cell OD value×100%, and the half inhibition concentration (IC50) was determined by the Bliss method.

MCF-7 = assay: Tumour cell proliferation inhibition, MTT assay, MCF-7; type: cell-based, human; conditions: 72 hours
[3] = tested on: human kidney cancer 786-O nude mice xenografts; assay: In vivo antitumour activity, human kidney cancer 786-O nude mice xenografts; conditions: 786-O xenograft; for Tumour volume D1: D 1 (start); for Tumour volume D1 / RTV: x ± SE; for Tumour volume D 21: D 21, x ± SE
Description: [Worded in the source for another cell line; this cell line is reported under the same test.] as §1, §2, §3, §4

[4] = tested on: human ovarian cancer SKOV3 nude mice xenografts; assay: In vivo antitumour activity, human ovarian cancer SKOV3 nude mice xenografts; conditions: SKOV3 xenograft, 50 mg/kg
[5] = same concentration (3 μM), ratio of inhibition rates

T1 sequence (Q12809 whole entry): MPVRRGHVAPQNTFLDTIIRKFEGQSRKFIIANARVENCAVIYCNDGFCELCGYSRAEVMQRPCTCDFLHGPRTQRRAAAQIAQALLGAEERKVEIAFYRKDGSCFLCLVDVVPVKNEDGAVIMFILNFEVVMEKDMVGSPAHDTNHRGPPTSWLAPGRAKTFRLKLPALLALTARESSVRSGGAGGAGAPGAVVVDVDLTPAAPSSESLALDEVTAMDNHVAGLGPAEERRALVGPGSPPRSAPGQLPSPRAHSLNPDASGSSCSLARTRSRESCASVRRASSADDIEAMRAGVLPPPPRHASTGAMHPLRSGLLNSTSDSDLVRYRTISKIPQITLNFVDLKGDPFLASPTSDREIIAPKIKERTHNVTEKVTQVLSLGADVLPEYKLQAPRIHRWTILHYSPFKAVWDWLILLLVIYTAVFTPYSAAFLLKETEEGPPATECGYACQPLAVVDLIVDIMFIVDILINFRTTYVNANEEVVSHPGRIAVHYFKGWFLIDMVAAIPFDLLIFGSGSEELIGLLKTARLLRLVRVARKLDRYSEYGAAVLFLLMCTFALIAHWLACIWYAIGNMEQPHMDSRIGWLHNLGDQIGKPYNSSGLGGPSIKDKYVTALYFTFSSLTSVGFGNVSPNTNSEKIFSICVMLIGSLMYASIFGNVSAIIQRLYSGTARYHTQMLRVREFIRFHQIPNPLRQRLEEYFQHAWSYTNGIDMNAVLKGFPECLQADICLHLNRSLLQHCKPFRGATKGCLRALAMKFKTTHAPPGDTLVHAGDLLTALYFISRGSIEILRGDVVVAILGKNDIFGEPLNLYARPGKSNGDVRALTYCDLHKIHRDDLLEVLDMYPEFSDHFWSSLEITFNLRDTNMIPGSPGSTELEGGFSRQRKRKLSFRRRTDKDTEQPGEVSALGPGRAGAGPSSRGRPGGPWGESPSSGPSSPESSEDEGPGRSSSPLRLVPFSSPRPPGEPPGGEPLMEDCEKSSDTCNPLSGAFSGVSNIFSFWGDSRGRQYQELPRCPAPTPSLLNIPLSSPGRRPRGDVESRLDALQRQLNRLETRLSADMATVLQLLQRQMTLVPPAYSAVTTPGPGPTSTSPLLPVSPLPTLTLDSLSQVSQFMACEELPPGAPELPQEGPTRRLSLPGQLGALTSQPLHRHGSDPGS

Structure (SMILES): Cn1nccc1-c1ccc(C(=O)N[C@@H]2CNCC[C@H]2c2ccc(F)c(F)c2)c(F)c1 [VII-1a]
- pIC50 (786-O): 6.25
- pIC50 (CEM-C1): 7.00
- RTV [1]: 11.37 ± 3.07
- T/C(%) [1]: 26.95%
- Tumour volume D1 [1]: 213 ± 102 mm^3
- Tumour volume D22 [1]: 1498 ± 206* mm^3
- 1/2 [2]: 3.34 h
- AUC0-inf [2]: 1500 ng·h/mL
- AUC0-t [2]: 1480 ng·h/mL
- Cmax ([2]; plasma): 132 ng/mL
- Tmax ([2]; plasma): 4.17 h
- hERG (Inhibition rate at 3 μM concentration) (hERG potassium channel): 15.9%
- pIC50 (HGC27): 7.40
- pIC50 (HCT-116): 5.87
- pIC50 (MCF-7): 5.65

Structure (SMILES): Cn1nccc1-c1ccc(C(=O)N[C@@H]2CNCC[C@H]2c2ccc(F)c(F)c2)c(F)c1.O=C(O)C[C@H](O)C(=O)O [VII-30]
- T/C(%) ([3]; 50 mg/kg): 22.86%
- Tumour volume D1 ([3]; 50 mg/kg): 125 ± 14 mm^3
- Tumour volume D 21 ([3]; 50 mg/kg): 328 ± 105** mm^3
- RTV ([3]; 50 mg/kg): 2.62 ± 0.83
- T/C(%) ([3]; 100 mg/kg): 9.26%
- Tumour volume D1 ([3]; 100 mg/kg): 126 ± 13 mm^3
- Tumour volume D 21 ([3]; 100 mg/kg): 127 ± 51** mm^3
- RTV ([3]; 100 mg/kg): 1.06 ± 0.43
- RTV [1]: 7.29 ± 3.03
- T/C(%) [1]: 17.27%
- Tumour volume D1 [1]: 215 ± 88 mm^3
- Tumour volume D22 [1]: 1157 ± 452* mm^3
- 1/2 [2]: 3.63 h
- AUC0-inf [2]: 2390 ng·h/mL
- AUC0-t [2]: 2350 ng·h/mL
- improvement of AUC0-t over VII-1a ([2]; salt versus free form VII-1a): 58%
- Cmax ([2]; in vivo): 253 ng/mL
- Tmax ([2]; in vivo): 1.75 h
- hERG (Inhibition rate at 3 μM concentration) (hERG potassium channel): 20%
- hERG blocking effect relative to GSK2141795 (hERG potassium channel; [5]): 0.4
- hERG blocking effect relative to compound 31 (WO2015/144021A1) (hERG potassium channel; [5]): 0.32
- T/C(%) [4]: 32.96%
- Tumour volume D1 ([4]; D 1 (start), x ± SE): 117 ± 65 mm^3
- Tumour volume D22 ([4]; D 22, x ± SE): 248 ± 19* mm^3
- RTV ([4]; x ± SE): 3.60 ± 2.67
